Laboratory results published in US20180015051A1, “MODULATORS OF ALPHA-DICARBONYL DETOXIFICATION AND THEIR USE FOR THE TREATMENT OF DIABETIC PATHOLOGIES” (Buck Institute for Research on Aging, priority 2016, published 2018).

What was measured:
[1] = test system: glod-4 animals; assay: LC-MS/MS estimation of a-DC levels (MGO, GO) in worms; format: in vivo, Caenorhabditis elegans; settings: for Levels of GO / Levels of MGO: glod-4, PA; for Levels of GO: LA, or UMP (20 pM each) vs EtOH control; for Levels of MGO: LA, or UMP (20 pM) vs EtOH control
Experimental: Worms were cultured on NGM agar plates as explained before for lifespan experiments with some modifications: ˜100 animals/60 mm plates were used for each experimental replicate and animals were harvested at day 4 of adulthood with 20 pL M9 buffer in 1.5 mL eppendorf tubes. Worm suspensions were flash-frozen over liquid nitrogen and subsequently homogenized ultrasonically using a Fisher Scientific's 550 Sonic Dismembrator with 80 pL of sodium formate buffer (pH=3) containing 75 pM of 2,3-hexanedione (internal standard, IS). Two 20 s pulses at amplitude setting 4 of the instrument (on ice) were sufficient to completely homogenize worm bodies. To each homogenate tube 20 pL of 100 mg/mL o-phenelynediamine (OPD) solution in sodium formate buffer (pH=3) were added, and the mixture was allowed to react in dark at room temperature for ˜22 h. The long reaction time and the pH are critical parameters in this protocol: first to ensure complete derivatization of a-DCs bound reversibly to protein/glutathione —SHs; and second to prevent in vitro a-DC generation from glycolytic intermediates (DHAP, GAP, etc.) or due to DNA breakdown (Chaplen et al. (1998) Proc. Natl. Acad. Sci. USA, 95: 5533-5538). At the end of the stipulated reaction window, 12 pL of 5 M perchloric acid was added to each tube and incubated on ice for 30 min to ensure complete protein precipitation. Subsequently, the tubes were centrifuged at 10,000 rpm for 10 min, and the supernatant collected and neutralized with 30 pL 4 M NH4OH solution.
Optimization of analyte-specific MRM transitions, such as determination of suitable precursor and product ions and optimal MS parameters for each transition (Q1, precursor→Q3, product) were achieved by isocratic flow injection of the 10 pM solution (final) for each standard- or IS-OPD derivatives. The most intense (Q1→Q3) transition was used as quantifier, whereas the next best transition was used as qualifier for each compound (Table 4). For LC separation, a solvent gradient of 0.1% acetic acid in water (aqueous) - methanol (organic) was used with 0.4 mL/min flow rate, starting with an […] content of 3% for 0.7 min, which was increased to 100% over 6 min and held at 100% for 1.5 min. The LC column was subsequently reconstituted to its initial condition (methanol content of 3%) over the next 0.5 min and re-equilibrated for 3 min.
Derivatized metabolome extracts, as well as synthetic a-DCs were analyzed by scheduled LC-MRM in positive ion mode. To develop the scheduled LC-MRM method, MS/MS data was collected for all transitions across the length of each LC run for a mixture of synthetic GO-, MGO-, 3DG-, and 2,3-hexanedione (IS)-OPD derivatives (1 pL injection of 1 pM final concentration). Source conditions were as follows: curtain gas (CUR) 20, nebulizer gas (GS1) 60, auxiliary gas (GS2) 50, ionspray voltage (IS) 4500 V, and source temperature (TEM) 450° C. This step was undertaken to ascertain the LC retention times (RT) for the OPD derivatives. Several such sets were acquired to compute analyte-specific variability in RTs. Next, the MS was switched to operate in scheduled MRM mode, whereby the mass spectrometer acquired data for specific MRM transitions ±45 s around the computed RT for the analyte (Table 4). Relative quantification of GO, MGO, and 3DG were based on integration of corresponding OPD derivative-specific quantifier peaks obtained from scheduled LC-MRM runs (peak areas) and adjusted to the number of animals. To account for OPD derivatization efficiencies in individual tubes, sample-to-sample variability in MS response, and differential sample dilutions (both for synthetic a-DCs as well as a-DCs in worm homogenates), the peak areas were normalized to the quantifier peak area for IS-OPD for each sample.

[2] = test system: C. elegans; assay: Touch assay (touch index, gentle touch)
Experimental: For feeding RNAi bacteria, synchronized L1 larvae were transferred to NGM plates containing 1 mM of isopropyl P-D-1- thiogalactopyranoside/IPTG (referred to as RNAi plates) seeded with 20× concentrated HT1115 bacteria (cultured overnight at 20° C. at 220 rpm), carrying desired plasmid for RNAi of a specific gene or bacteria carrying empty vector pL4440 as control and allowed to grow on plates for 48 h. For drug assays, synchronized L4 larvae were transferred to either 60 mm NGM plates (with or without IPTG), freshly seeded with 5×E. coli OP50-1 or 20× HT1115 RNAi bacteria. Before seeding, the desired drug (or vehicle control) was mixed with the bacteria. Final drug concentrations were calculated considering the total volume of media and bacteria seeded on the NGM plates.
Briefly, each animal was touched alternately in the head region and in the tail with an eyelash. Typically, an omega turn or diversion in head direction resulting from anterior touch was counted as a positive response. Posterior touch response (not counted towards positive response) functioned towards resetting of the response to anterior touch. Touch index (TI) scores were generated by dividing the total number of positive responses over the […] per animal.
Synchronized glod-4 L1 animals were cultured on NGM agar plates seeded with E. coli OP50-1 until L4. […] Post-transfer into wells, animals were fed OP50-1 bacteria ad libitum while incubating at 20° C. on a rocker for 12 h. DMSO was used as control. Post-incubation with drug or DMSO, animals were transferred from wells onto NGM agar plates seeded with OP50-1 bacteria. Touch assay was performed on individual animal and touch index (TI) was calculated for each compound from the library as mentioned earlier.

[3] = test system: 50B11 cells (immortalized rat DRG neuronal cells); assay: MGO-mediated neurotoxicity in differentiated 50B11 cells (DIC imaging, neurite length, soma size); format: cell-based; settings: 20-24 h
Experimental: 50B11 cells (immortalized rat DRG neuronal cells) maintain self-replication capability over many cell divisions (>300). The results described in this article were obtained with cells between 100 and 400 passages. Cells were grown in antibiotic treated complete Neurobasal media containing glucose, L-glutamine, Fetal Bovine Serum (FBS), B-27 supplement, and nerve growth factor (NGF) (100 ng/ml). Differentiation and axonal elongation was induced by addition of forskolin (75 pM) into the culture medium. […] Methylglyoxal was administered at a final concentration of 250 pM for 20-24 h post-differentiation of the cells. Podocarpic acid was added at a final concentration of 250 pM and incubated for the same period with or without methylglyoxal. Ethanol was used as a vehicle control. […] Neurite outgrowth was quantified by manually measuring the length of a projection from the edge of the cell body; a neurite was defined as a thin projection longer than the diameter of the associated cell body. Area of soma or cell body was measured excluding the neurite projections. Images were processed using Image Analyst MKII software (www.imageanalyst.net/) and quantification was done using Image J software (//imagei.nih.gov/ij/). 75-100 cells selected randomly were considered for quantification under each experimental condition.

Compound | Levels of GO [1] | Levels of MGO [1] | Touch sensitivity (touch index) ([2]; N2 animals, young adult stage, 7 mM MGO vs water) | Neurite length (neurite outgrowth) ([3]; MGO 250 pM) | Soma size (cell bodies) ([3]; MGO 250 pM) | Touch sensitivity (touch index), lack of touch sensitivity ([2]; glod-4, day 8 of adulthood, PA (20 pM) vs EtOH control) | Touch sensitivity (touch index), hyperesthesia ([2]; glod-4, young adult stage, PA (20 pM) vs EtOH control) | Levels of MGO under trpa-1 knockdown ([1]; glod-4 on trpa-1 RNAi, PA vs EtOH control) | MGO-induced neurotoxic phenotypes (cell body size, neurite outgrowth) ([3]; PA and MGO each at 250 pM)
O=C(O)CCCCC1CCSS1 (centres unmarked) [LA, a-lipoic acid] | almost wild-type-like levels | almost wild-type-like levels |  |  |  |  |  |  | 
CC(=O)C=O [MGO, methylglyoxal] |  |  | hyperesthesia | significant retraction of neurite outgrowths | shrinkage in cell bodies |  |  |  | 
C[C@]1(C(=O)O)CCC[C@]2(C)c3cc(O)ccc3CC[C@@H]12 [PA, podocarpic acid] | almost wild-type-like levels | almost wild-type-like levels |  |  |  | lack of touch sensitivity to wild-type levels | revert the hyperesthesia | no effect | ameliorate these MGO-induced neurotoxic phenotypes
